How the values were obtained:
Test in all cases: relative viability (nuclei count vs DMSO), 5 days (fraction); higher = more cells survive
[1] = compound: Cn1c(=O)n(-c2ccc(C(C)(C)C#N)cc2)c2c3cc(-c4cnc5ccccc5c4)ccc3ncc21 [Dactolisib] + O=C(c1cc(Cc2n[nH]c(=O)c3ccccc23)ccc1F)N1CCN(C(=O)C2CC2)CC1 [Olaparib] (partner 8 µM)
How it was run: (§1)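 Five library-drug doses in √10 steps were combined with a fixed anchor-drug dose, or a single drug was given alone, by pin tool to lung cancer cell lines in 1536-well plates the day after seeding. Nuclei were stained and counted after 5 days. Relative viability is the nuclei count in treated wells over that in vehicle wells, taken as the median of duplicate plates.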

[2] = compound: Cn1c(=O)n(-c2ccc(C(C)(C)C#N)cc2)c2c3cc(-c4cnc5ccccc5c4)ccc3ncc21 [Dactolisib] + C[C@@H](Oc1cc(-c2cnn(C3CCNCC3)c2)cnc1N)c1c(Cl)ccc(F)c1Cl [Crizotinib] (partner 1 µM)
How it was run: as §1

[3] = compound: C1CCC(CC1)N(CCNCCC2=C3C(=C(C=C2)O)NC(=O)CO3)C(=O)CCNCCC4=CC(=C(C=C4)Cl)Cl [AZ505] + C[C@]1(O)C[C@@H](c2nc(-c3ccc4ccc(-c5ccccc5)nc4c3)c3c(N)nccn32)C1 [Linsitinib] (partner 1 µM)
How it was run: as §1

[4] = compound: Cn1c(=O)n(-c2ccc(C(C)(C)C#N)cc2)c2c3cc(-c4cnc5ccccc5c4)ccc3ncc21 [Dactolisib] + Nc1nc2[nH]cc(CCc3ccc(C(=O)N[C@@H](CCC(=O)O)C(=O)O)cc3)c2c(=O)[nH]1 [Pemetrexed] (partner 0.2 µM)
How it was run: as §1

Row | Cell Line | relative viability ([1]; first compound 0.002 µM) | relative viability ([1]; first compound 0.006325 µM) | relative viability ([1]; first compound 0.02 µM) | relative viability ([1]; first compound 0.06325 µM) | relative viability ([1]; first compound 0.2 µM) | relative viability ([2]; first compound 0.002 µM) | relative viability ([2]; first compound 0.006325 µM) | relative viability ([2]; first compound 0.02 µM) | relative viability ([2]; first compound 0.06325 µM) | relative viability ([2]; first compound 0.2 µM) | relative viability ([3]; first compound 0.08 µM) | relative viability ([3]; first compound 0.253 µM) | relative viability ([3]; first compound 0.8 µM) | relative viability ([3]; first compound 2.53 µM) | relative viability ([3]; first compound 8 µM) | relative viability ([4]; first compound 0.002 µM) | relative viability ([4]; first compound 0.006325 µM) | relative viability ([4]; first compound 0.02 µM) | relative viability ([4]; first compound 0.06325 µM) | relative viability ([4]; first compound 0.2 µM)
1 | NCI-H2085 | 0.887 | 0.778 | 0.689 | 0.513 | 0.359 | 0.904 | 0.763 | 0.668 | 0.523 | 0.305 | 0.817 | 0.923 | 0.93 | 0.918 | 0.968 | 0.905 | 0.884 | 0.811 | 0.345 | 0.273
2 | NCI-H1734 | 0.644 | 0.548 | 0.471 | 0.405 | 0.266 | 0.634 | 0.578 | 0.454 | 0.333 | 0.164 | 0.654 | 0.908 | 0.801 | 0.949 | 0.883 | 0.335 | 0.436 | 0.415 | 0.36 | 0.317
3 | NCI-H2126 | 0.975 | 0.895 | 0.878 | 0.514 | 0.44 | 1.07 | 1.03 | 0.98 | 0.713 | 0.537 | 0.681 | 0.724 | 0.721 | 0.711 | 0.68 | 0.574 | 0.717 | 0.612 | 0.471 | 0.372
4 | EMC-BAC-2 | 0.613 | 0.433 | 0.464 | 0.372 | 0.356 | 0.834 | 0.718 | 0.708 | 0.565 | 0.34 | 0.767 | 0.834 | 0.813 | 0.822 | 0.879 | 0.424 | 0.39 | 0.448 | 0.456 | 0.416

Reference: the supplement of paper PMC10307832
